From ChEMBL document CHEMBL1201862, “PubChem BioAssay data set” (2004)
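All cell lines were grown in 96-well plates and treated with compound for 48 hours. GI50: concentration for 50% inhibition of growth.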 The source made the active and inactive calls. No stated cut-off is given here; in the data, active = GI50 up to about 1.1 µM and inactive = higher.

Key:
Assay in all cases: NCI tumour cell line growth inhibition, 48 h
HOP-62 = system: HOP-62
RPMI-8226 = system: RPMI-8226
SR = system: SR
Hs-578T = system: Hs-578T
SF-268 = system: SF-268
HOP-92 = system: HOP-92
MDA-MB-231 = system: MDA-MB-231
UACC-257 = system: UACC-257
UO-31 = system: UO-31
HL-60 = system: HL-60
Malme-3M = system: Malme-3M
NCI-H460 = system: NCI-H460
RXF 393 = system: RXF 393
CCRF-CEM = system: CCRF-CEM
A498 = system: A498
TK-10 = system: TK-10
OVCAR-4 = system: OVCAR-4
SF-539 = system: SF-539
LOX IMVI = system: LOX IMVI

Measured: GI50

CCOC(=O)C(NC(=O)CC)(Nc1ccc(F)c(Cl)c1)C(F)(F)F (stereo unspecified)
inactive: HOP-62 > 100 µM | RPMI-8226 > 63.2 µM | SR > 45.6 µM | Hs-578T > 100 µM | SF-268 > 100 µM | HOP-92 > 100 µM | MDA-MB-231 > 100 µM | UACC-257 > 100 µM | UO-31 > 100 µM | HL-60 > 36.2 µM | Malme-3M > 100 µM | NCI-H460 > 100 µM | RXF 393 > 100 µM | CCRF-CEM 35.6 µM | A498 > 100 µM | TK-10 > 100 µM | OVCAR-4 > 100 µM | SF-539 > 100 µM

CC(C)CCC1(O)O[C@H]2C[C@H]3[C@@H]4CCC5CC(=O)C=C[C@]5(C)[C@H]4CC[C@]3(C)[C@H]2[C@@H]1C (stereo partly specified)
inactive: HOP-62 15 µM | RPMI-8226 4.88 µM | SR 8.36 µM | Hs-578T 2.82 µM | SF-268 13.4 µM | HOP-92 3.58 µM | MDA-MB-231 14.5 µM | UACC-257 15 µM | UO-31 16.6 µM | LOX IMVI 12.7 µM | HL-60 4.45 µM | Malme-3M 14.9 µM | NCI-H460 10.3 µM | RXF 393 11.8 µM | CCRF-CEM 3.18 µM | A498 14.6 µM | TK-10 11.8 µM | OVCAR-4 11.9 µM | SF-539 17.6 µM

CC(=O)NNC(=O)C1CCCCN1 (stereo unspecified)
inactive: HOP-62 > 100 µM | RPMI-8226 > 100 µM | SR > 100 µM | Hs-578T > 100 µM | SF-268 > 100 µM | HOP-92 > 100 µM | MDA-MB-231 > 100 µM | UACC-257 > 100 µM | LOX IMVI > 100 µM | HL-60 > 100 µM | Malme-3M > 100 µM | NCI-H460 > 100 µM | RXF 393 > 100 µM | CCRF-CEM > 100 µM | A498 > 100 µM | TK-10 > 100 µM | OVCAR-4 > 100 µM | SF-539 > 100 µM

O=C(O)CCCSc1ccccc1
inactive: HOP-62 > 100 µM | RPMI-8226 > 100 µM | SR > 100 µM | Hs-578T > 100 µM | SF-268 > 100 µM | HOP-92 > 100 µM | MDA-MB-231 > 100 µM | UACC-257 > 100 µM | UO-31 > 100 µM | LOX IMVI > 100 µM | HL-60 > 100 µM | Malme-3M > 100 µM | NCI-H460 > 100 µM | RXF 393 > 100 µM | CCRF-CEM > 100 µM | A498 > 100 µM | TK-10 > 100 µM | OVCAR-4 > 100 µM | SF-539 > 100 µM

CC(Oc1ccc(Cl)cc1Cl)C(=O)NN1C(=O)CSC1c1ccccc1 (stereo unspecified)
inactive: HOP-62 47.5 µM | RPMI-8226 49.2 µM | SR 3.89 µM | Hs-578T 45.6 µM | SF-268 60.5 µM | HOP-92 27.7 µM | MDA-MB-231 37.8 µM | UACC-257 53.2 µM | UO-31 > 100 µM | LOX IMVI 69 µM | HL-60 27.3 µM | Malme-3M 40.9 µM | NCI-H460 > 100 µM | RXF 393 54.7 µM | CCRF-CEM 66.7 µM | A498 42.8 µM | TK-10 > 100 µM | OVCAR-4 32.1 µM | SF-539 > 100 µM

CC1(C)CCC2=C(O1)/C(=N\Nc1ccc(S(N)(=O)=O)cc1)c1ccccc1C2=O
inactive: HOP-62 7.8 µM | RPMI-8226 27.6 µM | SR 5.61 µM | Hs-578T 3.13 µM | SF-268 11 µM | HOP-92 12.4 µM | MDA-MB-231 2.56 µM | UACC-257 9.55 µM | UO-31 18.2 µM | LOX IMVI 4.41 µM | HL-60 15.1 µM | Malme-3M 3.3 µM | NCI-H460 12 µM | RXF 393 5.37 µM | CCRF-CEM 11.3 µM | A498 2.37 µM | TK-10 14.5 µM | OVCAR-4 5.81 µM | SF-539 10.4 µM

CC(=O)Nn1c(=S)[nH]c2ccccc21
inactive: HOP-62 > 100 µM | RPMI-8226 > 100 µM | SR > 100 µM | Hs-578T > 100 µM | SF-268 > 100 µM | HOP-92 > 100 µM | MDA-MB-231 > 100 µM | UACC-257 > 100 µM | UO-31 > 100 µM | LOX IMVI > 100 µM | HL-60 > 100 µM | Malme-3M > 100 µM | NCI-H460 > 100 µM | RXF 393 > 100 µM | CCRF-CEM > 100 µM | A498 > 100 µM | TK-10 > 100 µM | OVCAR-4 > 100 µM

COC(=O)c1ccc2c(O)c(O)ccc2c1
inactive: HOP-62 18.9 µM | RPMI-8226 14.7 µM | SR 2.6 µM | Hs-578T 27 µM | SF-268 19.4 µM | HOP-92 18.4 µM | MDA-MB-231 6.56 µM | UACC-257 14.9 µM | UO-31 20.7 µM | LOX IMVI 2.87 µM | HL-60 2.02 µM | Malme-3M 11.8 µM | NCI-H460 19.9 µM | RXF 393 17.6 µM | CCRF-CEM 2.69 µM | A498 21.3 µM | TK-10 21.5 µM | OVCAR-4 14.6 µM | SF-539 19.1 µM

Nc1c(F)c(F)c2c(c1F)N(CCCCCl)c1ccccc1S2
inactive: HOP-62 > 100 µM | RPMI-8226 > 100 µM | SR > 100 µM | Hs-578T > 100 µM | SF-268 > 100 µM | HOP-92 > 100 µM | MDA-MB-231 > 100 µM | UACC-257 > 100 µM | UO-31 > 100 µM | LOX IMVI > 100 µM | HL-60 > 100 µM | Malme-3M > 100 µM | NCI-H460 > 100 µM | RXF 393 > 100 µM | CCRF-CEM > 100 µM | A498 > 100 µM | TK-10 > 100 µM | OVCAR-4 > 100 µM | SF-539 > 100 µM

CCCCNC(=O)c1cc2c(cc1Cl)Sc1nccn1S2(=O)=O
inactive: HOP-62 24.3 µM | RPMI-8226 > 100 µM | SR 57.3 µM | Hs-578T 57.3 µM | SF-268 > 100 µM | HOP-92 25.4 µM | MDA-MB-231 > 100 µM | UACC-257 > 100 µM | UO-31 > 100 µM | LOX IMVI 30.3 µM | HL-60 41.3 µM | Malme-3M > 100 µM | NCI-H460 44.3 µM | RXF 393 95.9 µM | CCRF-CEM 77.6 µM | A498 > 100 µM | TK-10 > 100 µM | OVCAR-4 43.7 µM | SF-539 > 100 µM

CSc1c(C#N)c(O)nc(N)c1C(=O)Nc1ccc(Cl)cc1
inactive: HOP-62 16 µM | RPMI-8226 11.2 µM | SR > 69.2 µM | Hs-578T 31 µM | SF-268 19.5 µM | HOP-92 21.7 µM | MDA-MB-231 15.6 µM | UACC-257 6.78 µM | UO-31 11.2 µM | LOX IMVI 1.74 µM | HL-60 13.2 µM | Malme-3M 26.5 µM | NCI-H460 6.32 µM | RXF 393 23.6 µM | CCRF-CEM 30.3 µM | A498 16.6 µM | TK-10 29.3 µM | OVCAR-4 31.4 µM | SF-539 16.4 µM
